Data from the kinase profiling compilation of Christmann-Franck et al. (2016).

Experiments:
Experiment in all cases: radiometric filter-binding kinase assay
RPS6KA5 KD1 KD2 (human) = RPS6KA5 KD1 KD2 (human) (UniProt O75582); conditions: compound 100.0 µM; ATP 20 µM
FLT1 (human) = FLT1 (human) (UniProt P17948); conditions: compound 100.0 µM; ATP 20 µM
PIM1 (human) = PIM1 (human) (UniProt P11309); conditions: compound 100.0 µM; ATP 20 µM
MAP3K1 (human) = MAP3K1 (human) (UniProt Q13233); conditions: compound 100.0 µM; ATP 50 µM
[1] = tested on: SGK1 (human), O00141 [S422D]; conditions: compound 100.0 µM; ATP 20 µM
PHKG1 (human) = PHKG1 (human) (UniProt Q16816); conditions: compound 100.0 µM; ATP 50 µM
MYLK (human) = MYLK (human) (UniProt Q15746); conditions: compound 100.0 µM; ATP 50 µM
NEK2 (human) = NEK2 (human) (UniProt P51955); conditions: compound 100.0 µM; ATP 50 µM
SRPK1 (human) = SRPK1 (human) (UniProt Q96SB4); conditions: compound 100.0 µM; ATP 50 µM
MELK (human) = MELK (human) (UniProt Q14680); conditions: compound 100.0 µM; ATP 50 µM
MST4 (human) = MST4 (human) (UniProt Q9P289); conditions: compound 100.0 µM; ATP 20 µM
BTK (human) = BTK (human) (UniProt Q06187); conditions: compound 100.0 µM; ATP 50 µM
MAPK11 (human) = MAPK11 (human) (UniProt Q15759); conditions: compound 100.0 µM; ATP 20 µM
CHEK2 (human) = CHEK2 (human) (UniProt O96017); conditions: compound 100.0 µM; ATP 20 µM
PRKCG (human) = PRKCG (human) (UniProt P05129); conditions: compound 100.0 µM; ATP 20 µM
YES1 (human) = YES1 (human) (UniProt P07947); conditions: compound 100.0 µM; ATP 20 µM
IGF1R (human) = IGF1R (human) (UniProt P08069); conditions: compound 100.0 µM; ATP 5 µM
FGFR1 (human) = FGFR1 (human) (UniProt P11362); conditions: compound 100.0 µM; ATP 20 µM
PAK7 (human) = PAK7 (human) (UniProt Q9P286); conditions: compound 100.0 µM; ATP 20 µM
MAP3K9 (human) = MAP3K9 (human) (UniProt P80192); conditions: compound 100.0 µM; ATP 20 µM
DYRK3 (human) = DYRK3 (human) (UniProt O43781); conditions: compound 100.0 µM; ATP 5 µM
PAK6 (human) = PAK6 (human) (UniProt Q9NQU5); conditions: compound 100.0 µM; ATP 20 µM
SYK (human) = SYK (human) (UniProt P43405); conditions: compound 100.0 µM; ATP 20 µM
[2] = tested on: AKT2 (human), P31751 [S474D]; conditions: compound 100.0 µM; ATP 50 µM
MAPKAPK3 (human) = MAPKAPK3 (human) (UniProt Q16644); conditions: compound 100.0 µM; ATP 20 µM
NEK6 (human) = NEK6 (human) (UniProt Q9HC98); conditions: compound 100.0 µM; ATP 50 µM
EPHA2 (human) = EPHA2 (human) (UniProt P29317); conditions: compound 100.0 µM; ATP 50 µM
PRKCA (human) = PRKCA (human) (UniProt P17252); conditions: compound 100.0 µM; ATP 20 µM
[3] = molecular target: STK11 CAB39 STRADA (human) (UniProt Q9Y376+Q7RTN6+Q15831); conditions: compound 100.0 µM; ATP 20 µM
PIM2 (human) = PIM2 (human) (UniProt Q9P1W9); conditions: compound 100.0 µM; ATP 5 µM
STK3 (human) = STK3 (human) (UniProt Q13188); conditions: compound 100.0 µM; ATP 20 µM
MAPKAPK2 (human) = MAPKAPK2 (human) (UniProt P49137); conditions: compound 100.0 µM; ATP 20 µM
DYRK1A (human) = DYRK1A (human) (UniProt Q13627); conditions: compound 100.0 µM; ATP 50 µM
CAMKK2 (human) = CAMKK2 (human) (UniProt Q96RR4); conditions: compound 100.0 µM; ATP 20 µM
DYRK2 (human) = DYRK2 (human) (UniProt Q92630); conditions: compound 100.0 µM; ATP 50 µM
PKN2 (human) = PKN2 (human) (UniProt Q16513); conditions: compound 100.0 µM; ATP 5 µM
[4] = molecular target: PRKAA1 PRKAB2 PRKAG1 (human) (UniProt O43741+Q13131+P54619); conditions: compound 100.0 µM; ATP 20 µM
MINK1 (human) = MINK1 (human) (UniProt Q8N4C8); conditions: compound 100.0 µM; ATP 50 µM
MAPK15 (human) = MAPK15 (human) (UniProt Q8TD08); conditions: compound 100.0 µM; ATP 5 µM

FLT1 (human), sequence (P17948 whole entry, looked up): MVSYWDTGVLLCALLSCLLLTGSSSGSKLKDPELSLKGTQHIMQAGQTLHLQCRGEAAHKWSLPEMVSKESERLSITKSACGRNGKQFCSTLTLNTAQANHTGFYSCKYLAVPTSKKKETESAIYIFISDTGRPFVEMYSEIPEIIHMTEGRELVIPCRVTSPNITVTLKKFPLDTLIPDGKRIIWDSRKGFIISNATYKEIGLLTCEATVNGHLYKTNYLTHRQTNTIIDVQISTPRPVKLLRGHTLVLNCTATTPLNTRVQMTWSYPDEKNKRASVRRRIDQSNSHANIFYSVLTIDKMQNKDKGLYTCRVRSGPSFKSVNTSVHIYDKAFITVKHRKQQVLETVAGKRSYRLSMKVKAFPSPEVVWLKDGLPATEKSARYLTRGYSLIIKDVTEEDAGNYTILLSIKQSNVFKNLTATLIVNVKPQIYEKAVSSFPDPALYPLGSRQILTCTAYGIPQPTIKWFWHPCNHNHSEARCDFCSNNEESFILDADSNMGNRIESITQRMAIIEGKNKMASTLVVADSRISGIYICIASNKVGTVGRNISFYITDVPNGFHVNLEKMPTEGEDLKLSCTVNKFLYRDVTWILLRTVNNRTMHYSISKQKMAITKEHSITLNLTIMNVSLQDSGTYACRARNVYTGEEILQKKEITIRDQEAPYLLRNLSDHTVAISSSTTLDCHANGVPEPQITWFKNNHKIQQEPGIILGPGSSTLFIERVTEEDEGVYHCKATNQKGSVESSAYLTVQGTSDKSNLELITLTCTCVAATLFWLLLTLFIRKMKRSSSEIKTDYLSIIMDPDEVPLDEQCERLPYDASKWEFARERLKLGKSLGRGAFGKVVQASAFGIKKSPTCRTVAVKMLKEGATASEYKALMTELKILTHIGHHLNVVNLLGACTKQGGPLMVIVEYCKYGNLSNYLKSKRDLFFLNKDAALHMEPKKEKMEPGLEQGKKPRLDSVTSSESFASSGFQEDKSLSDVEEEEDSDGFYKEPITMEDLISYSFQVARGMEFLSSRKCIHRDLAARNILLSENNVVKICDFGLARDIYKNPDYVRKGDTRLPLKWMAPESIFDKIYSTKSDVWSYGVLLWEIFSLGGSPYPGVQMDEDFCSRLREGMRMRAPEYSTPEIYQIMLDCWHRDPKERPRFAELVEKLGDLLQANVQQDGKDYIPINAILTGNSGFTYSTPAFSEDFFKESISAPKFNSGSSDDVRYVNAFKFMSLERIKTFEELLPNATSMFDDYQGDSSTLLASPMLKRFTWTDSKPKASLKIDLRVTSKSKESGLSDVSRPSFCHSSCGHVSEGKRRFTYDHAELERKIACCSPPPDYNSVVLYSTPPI
MELK (human), sequence (Q14680 whole entry, looked up): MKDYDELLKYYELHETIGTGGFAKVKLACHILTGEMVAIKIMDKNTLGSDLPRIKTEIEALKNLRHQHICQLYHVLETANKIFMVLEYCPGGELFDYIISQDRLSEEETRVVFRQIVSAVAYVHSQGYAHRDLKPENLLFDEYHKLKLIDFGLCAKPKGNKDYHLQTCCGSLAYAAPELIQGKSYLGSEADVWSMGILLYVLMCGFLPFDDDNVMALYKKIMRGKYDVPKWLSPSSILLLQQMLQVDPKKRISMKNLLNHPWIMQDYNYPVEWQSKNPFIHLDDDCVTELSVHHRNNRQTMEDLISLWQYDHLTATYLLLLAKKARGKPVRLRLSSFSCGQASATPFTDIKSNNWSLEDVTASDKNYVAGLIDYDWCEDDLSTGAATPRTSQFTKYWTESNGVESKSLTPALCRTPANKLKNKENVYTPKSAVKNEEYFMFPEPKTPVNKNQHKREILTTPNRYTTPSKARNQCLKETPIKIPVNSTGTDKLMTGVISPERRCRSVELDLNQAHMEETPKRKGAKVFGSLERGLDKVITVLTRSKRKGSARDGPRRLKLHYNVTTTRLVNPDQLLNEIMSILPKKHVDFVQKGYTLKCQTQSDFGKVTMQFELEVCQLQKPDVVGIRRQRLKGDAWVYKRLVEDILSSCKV
NEK6 (human), sequence (Q9HC98 whole entry, looked up): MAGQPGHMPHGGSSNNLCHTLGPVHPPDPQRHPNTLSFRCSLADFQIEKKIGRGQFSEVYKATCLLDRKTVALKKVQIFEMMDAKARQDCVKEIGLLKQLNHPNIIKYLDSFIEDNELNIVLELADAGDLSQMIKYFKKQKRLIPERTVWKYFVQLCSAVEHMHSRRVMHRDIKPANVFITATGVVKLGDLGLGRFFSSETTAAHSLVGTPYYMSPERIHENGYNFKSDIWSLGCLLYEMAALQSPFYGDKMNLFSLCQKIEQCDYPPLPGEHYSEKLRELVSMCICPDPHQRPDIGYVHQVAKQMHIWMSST
PRKAA1 PRKAB2 PRKAG1 (human), sequence (O43741 whole entry, looked up): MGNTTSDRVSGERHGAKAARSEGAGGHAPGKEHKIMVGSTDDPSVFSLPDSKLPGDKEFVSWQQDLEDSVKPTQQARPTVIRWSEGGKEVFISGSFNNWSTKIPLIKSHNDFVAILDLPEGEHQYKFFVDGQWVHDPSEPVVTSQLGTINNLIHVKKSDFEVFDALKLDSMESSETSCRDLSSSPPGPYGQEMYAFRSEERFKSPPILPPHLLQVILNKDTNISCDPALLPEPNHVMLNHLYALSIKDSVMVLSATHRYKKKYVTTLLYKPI
PRKAA1 PRKAB2 PRKAG1 (human), sequence (P54619 whole entry, looked up): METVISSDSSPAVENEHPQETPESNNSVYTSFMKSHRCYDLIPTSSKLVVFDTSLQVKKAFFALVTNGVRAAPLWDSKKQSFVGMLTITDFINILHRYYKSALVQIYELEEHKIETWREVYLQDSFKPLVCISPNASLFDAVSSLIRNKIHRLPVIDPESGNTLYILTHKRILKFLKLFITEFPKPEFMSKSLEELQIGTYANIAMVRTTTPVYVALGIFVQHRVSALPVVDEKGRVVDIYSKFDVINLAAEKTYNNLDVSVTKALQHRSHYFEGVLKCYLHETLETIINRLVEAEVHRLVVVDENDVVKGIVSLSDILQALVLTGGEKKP
PRKAA1 PRKAB2 PRKAG1 (human), sequence (Q13131 whole entry, looked up): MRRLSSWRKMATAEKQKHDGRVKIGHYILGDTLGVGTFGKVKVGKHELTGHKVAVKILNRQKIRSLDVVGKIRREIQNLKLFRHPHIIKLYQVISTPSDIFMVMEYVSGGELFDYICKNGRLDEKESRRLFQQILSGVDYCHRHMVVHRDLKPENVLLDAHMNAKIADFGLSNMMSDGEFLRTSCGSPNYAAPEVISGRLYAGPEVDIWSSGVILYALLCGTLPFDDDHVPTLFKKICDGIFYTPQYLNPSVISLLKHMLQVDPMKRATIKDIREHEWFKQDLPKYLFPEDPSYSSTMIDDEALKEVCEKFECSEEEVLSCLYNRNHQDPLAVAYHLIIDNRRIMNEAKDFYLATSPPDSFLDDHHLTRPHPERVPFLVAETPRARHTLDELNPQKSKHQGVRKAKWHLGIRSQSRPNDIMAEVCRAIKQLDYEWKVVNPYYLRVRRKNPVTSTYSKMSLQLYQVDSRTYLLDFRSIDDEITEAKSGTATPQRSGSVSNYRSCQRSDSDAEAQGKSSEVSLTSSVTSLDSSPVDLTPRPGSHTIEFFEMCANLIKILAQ
BTK (human), sequence (Q06187 whole entry, looked up): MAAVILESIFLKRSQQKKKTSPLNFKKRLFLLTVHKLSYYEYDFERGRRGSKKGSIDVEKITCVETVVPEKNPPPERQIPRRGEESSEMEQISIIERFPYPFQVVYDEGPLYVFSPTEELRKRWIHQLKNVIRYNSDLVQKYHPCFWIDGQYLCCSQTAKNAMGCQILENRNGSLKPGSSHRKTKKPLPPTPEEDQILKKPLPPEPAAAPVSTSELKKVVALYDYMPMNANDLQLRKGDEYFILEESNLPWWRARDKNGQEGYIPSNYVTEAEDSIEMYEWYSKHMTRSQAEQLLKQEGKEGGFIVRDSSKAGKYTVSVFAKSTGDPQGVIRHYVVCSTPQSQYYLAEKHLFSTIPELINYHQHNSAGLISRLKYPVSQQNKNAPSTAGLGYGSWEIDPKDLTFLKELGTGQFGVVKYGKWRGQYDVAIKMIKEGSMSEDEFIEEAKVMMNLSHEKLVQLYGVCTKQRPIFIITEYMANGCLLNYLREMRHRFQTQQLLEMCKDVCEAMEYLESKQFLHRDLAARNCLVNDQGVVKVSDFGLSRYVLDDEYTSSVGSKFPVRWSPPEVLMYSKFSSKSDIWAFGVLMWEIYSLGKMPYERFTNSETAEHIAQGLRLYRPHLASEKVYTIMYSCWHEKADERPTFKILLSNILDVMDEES
PHKG1 (human), sequence (Q16816 whole entry, looked up): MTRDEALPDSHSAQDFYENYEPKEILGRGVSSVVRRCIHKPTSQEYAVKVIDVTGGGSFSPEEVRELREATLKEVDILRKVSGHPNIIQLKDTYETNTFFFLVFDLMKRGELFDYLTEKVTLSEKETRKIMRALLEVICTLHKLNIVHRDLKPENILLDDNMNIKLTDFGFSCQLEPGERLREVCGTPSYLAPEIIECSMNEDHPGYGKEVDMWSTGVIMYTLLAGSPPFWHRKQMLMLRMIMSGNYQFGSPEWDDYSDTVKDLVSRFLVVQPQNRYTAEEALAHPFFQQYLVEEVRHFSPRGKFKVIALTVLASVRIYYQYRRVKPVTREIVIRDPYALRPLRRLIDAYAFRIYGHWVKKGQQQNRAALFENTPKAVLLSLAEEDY
STK3 (human), sequence (Q13188 whole entry, looked up): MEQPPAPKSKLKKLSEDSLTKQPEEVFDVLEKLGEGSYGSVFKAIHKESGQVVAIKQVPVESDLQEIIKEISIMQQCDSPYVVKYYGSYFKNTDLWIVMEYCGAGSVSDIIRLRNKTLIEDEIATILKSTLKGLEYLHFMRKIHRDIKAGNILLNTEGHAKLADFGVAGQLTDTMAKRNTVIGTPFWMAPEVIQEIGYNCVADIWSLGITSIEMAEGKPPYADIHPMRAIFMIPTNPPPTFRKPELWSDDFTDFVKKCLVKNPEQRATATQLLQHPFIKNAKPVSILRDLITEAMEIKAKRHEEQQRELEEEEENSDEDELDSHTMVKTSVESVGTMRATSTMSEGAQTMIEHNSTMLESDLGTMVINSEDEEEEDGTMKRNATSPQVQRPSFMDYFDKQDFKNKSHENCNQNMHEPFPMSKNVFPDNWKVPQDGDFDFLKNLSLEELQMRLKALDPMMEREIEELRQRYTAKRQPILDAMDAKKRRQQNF

Compound | inhibition (RPS6KA5 KD1 KD2 (human)) | inhibition (FLT1 (human)) | inhibition (PIM1 (human)) | inhibition (MAP3K1 (human)) | inhibition [1] | inhibition (PHKG1 (human)) | inhibition (MYLK (human)) | inhibition (NEK2 (human)) | inhibition (SRPK1 (human)) | inhibition (MELK (human)) | inhibition (MST4 (human)) | inhibition (BTK (human)) | inhibition (MAPK11 (human)) | inhibition (CHEK2 (human)) | inhibition (PRKCG (human)) | inhibition (YES1 (human)) | inhibition (IGF1R (human)) | inhibition (FGFR1 (human)) | inhibition (PAK7 (human)) | inhibition (MAP3K9 (human)) | also measured
O=C(Nc1cnc2[nH]ccn2c1=O)c1ccccc1 | 4% | 31% | 0% | 3% | 1% | 44% | 36% | 6% | 14% | 2% | 7% | 14% | 23% | 32% | 0% | 11% | 0% | 14% | 3% | 2% | inhibition (DYRK3 (human)): 18%; inhibition (PAK6 (human)): 6%; inhibition (SYK (human)): 22%; inhibition [2]: 14%; inhibition (MAPKAPK3 (human)): 33%; inhibition (NEK6 (human)): 15%; inhibition (EPHA2 (human)): 31%; inhibition (PRKCA (human)): 2%; inhibition [3]: 0%; inhibition (PIM2 (human)): 9%; inhibition (STK3 (human)): 21%; inhibition (MAPKAPK2 (human)): 29%; inhibition (DYRK1A (human)): 0%; inhibition (CAMKK2 (human)): 0%; inhibition (DYRK2 (human)): 19%; inhibition (PKN2 (human)): 0%; inhibition [4]: 0%; inhibition (MINK1 (human)): 25%; inhibition (MAPK15 (human)): 7%
O=c1c(NC(=S)NCc2ccccc2)cnc2[nH]ccn12 | 0% | 28% | 0% | 0% | 0% | 24% | 0% | 4% | 9% | 0% | 0% | 16% | 7% | 20% | 0% | 0% | 0% | 6% | 0% | 0% | inhibition (DYRK3 (human)): 10%; inhibition (PAK6 (human)): 0%; inhibition (SYK (human)): 12%; inhibition [2]: 31%; inhibition (MAPKAPK3 (human)): 21%; inhibition (NEK6 (human)): 6%; inhibition (EPHA2 (human)): 12%; inhibition (PRKCA (human)): 2%; inhibition [3]: 0%; inhibition (PIM2 (human)): 4%; inhibition (STK3 (human)): 3%; inhibition (MAPKAPK2 (human)): 23%; inhibition (DYRK1A (human)): 5%; inhibition (CAMKK2 (human)): 0%; inhibition (DYRK2 (human)): 13%; inhibition (PKN2 (human)): 0%; inhibition [4]: 0%; inhibition (MINK1 (human)): 0%; inhibition (MAPK15 (human)): 3%

Continued, in another order:

inhibition (RPS6KA5 KD1 KD2 (human)) | inhibition (FLT1 (human)) | inhibition (PIM1 (human)) | inhibition (MAP3K1 (human)) | inhibition [1] | inhibition (PHKG1 (human)) | inhibition (MYLK (human)) | inhibition (NEK2 (human)) | inhibition (SRPK1 (human)) | inhibition (MELK (human)) | inhibition (MST4 (human)) | inhibition (BTK (human)) | inhibition (MAPK11 (human)) | inhibition (CHEK2 (human)) | inhibition (PRKCG (human)) | inhibition (YES1 (human)) | inhibition (IGF1R (human)) | inhibition (FGFR1 (human)) | inhibition (PAK7 (human)) | inhibition (MAP3K9 (human)) | Compound | also measured
28% | 38% | 0% | 0% | 0% | 30% | 0% | 0% | 42% | 0% | 0% | 25% | 0% | 14% | 0% | 30% | 0% | 25% | 0% | 0% | COc1ccc(NC(=S)Nc2cnc3[nH]cnn3c2=O)cn1 | inhibition (DYRK3 (human)): 20%; inhibition (PAK6 (human)): 0%; inhibition (SYK (human)): 9%; inhibition [2]: 41%; inhibition (MAPKAPK3 (human)): 37%; inhibition (NEK6 (human)): 3%; inhibition (EPHA2 (human)): 0%; inhibition (PRKCA (human)): 23%; inhibition [3]: 0%; inhibition (PIM2 (human)): 0%; inhibition (STK3 (human)): 0%; inhibition (MAPKAPK2 (human)): 26%; inhibition (DYRK1A (human)): 10%; inhibition (CAMKK2 (human)): 0%; inhibition (DYRK2 (human)): 27%; inhibition (PKN2 (human)): 1%; inhibition [4]: 0%; inhibition (MINK1 (human)): 16%; inhibition (MAPK15 (human)): 8%
22% | 39% | 38% | 0% | 63% | 13% | 0% | 0% | 36% | 22% | 16% | 29% | 15% | 38% | 0% | 0% | 0% | 32% | 0% | 4% | COc1ccc(-c2cc3c(=O)[nH]cnc3s2)cc1OC | inhibition (DYRK3 (human)): 36%; inhibition (PAK6 (human)): 0%; inhibition (SYK (human)): 0%; inhibition [2]: 47%; inhibition (MAPKAPK3 (human)): 56%; inhibition (NEK6 (human)): 60%; inhibition (EPHA2 (human)): 37%; inhibition (PRKCA (human)): 18%; inhibition [3]: 0%; inhibition (PIM2 (human)): 25%; inhibition (STK3 (human)): 9%; inhibition (MAPKAPK2 (human)): 8%; inhibition (DYRK1A (human)): 36%; inhibition (CAMKK2 (human)): 0%; inhibition (DYRK2 (human)): 56%; inhibition (PKN2 (human)): 0%; inhibition [4]: 0%; inhibition (MINK1 (human)): 60%; inhibition (MAPK15 (human)): 18%
24% | 74% | 61% | 0% | 14% | 9% | 8% | 2% | 19% | 25% | 12% | 46% | 15% | 34% | 16% | 0% | 0% | 57% | 0% | 0% | O=C(c1cccc(-c2cc3c(=O)[nH]cnc3s2)c1)N1CCOCC1 | inhibition (DYRK3 (human)): 47%; inhibition (PAK6 (human)): 0%; inhibition (SYK (human)): 0%; inhibition [2]: 47%; inhibition (MAPKAPK3 (human)): 61%; inhibition (NEK6 (human)): 44%; inhibition (EPHA2 (human)): 37%; inhibition (PRKCA (human)): 21%; inhibition [3]: 0%; inhibition (PIM2 (human)): 13%; inhibition (STK3 (human)): 27%; inhibition (MAPKAPK2 (human)): 15%; inhibition (DYRK1A (human)): 52%; inhibition (CAMKK2 (human)): 0%; inhibition (DYRK2 (human)): 53%; inhibition (PKN2 (human)): 0%; inhibition [4]: 50%; inhibition (MINK1 (human)): 40%; inhibition (MAPK15 (human)): 72%
